The structures appear in SMILES notation.

The values that follow come from patent US20140179664A1, “Heterocyclyl Pyrimidine Analogues As JAK Inhibitors” (Cellzome Limited, priority 2011, published 2014).

Experiment [1] addresses T1, JAK3 (Homo sapiens, UniProt P52333).
T1 construct: endogenous in cells; host or cells: Molt4 (ATCC CRL-1582) and Ramos (ATCC CRL-1596), mixed lysate 1:2
T1 sequence (P52333 1-1124): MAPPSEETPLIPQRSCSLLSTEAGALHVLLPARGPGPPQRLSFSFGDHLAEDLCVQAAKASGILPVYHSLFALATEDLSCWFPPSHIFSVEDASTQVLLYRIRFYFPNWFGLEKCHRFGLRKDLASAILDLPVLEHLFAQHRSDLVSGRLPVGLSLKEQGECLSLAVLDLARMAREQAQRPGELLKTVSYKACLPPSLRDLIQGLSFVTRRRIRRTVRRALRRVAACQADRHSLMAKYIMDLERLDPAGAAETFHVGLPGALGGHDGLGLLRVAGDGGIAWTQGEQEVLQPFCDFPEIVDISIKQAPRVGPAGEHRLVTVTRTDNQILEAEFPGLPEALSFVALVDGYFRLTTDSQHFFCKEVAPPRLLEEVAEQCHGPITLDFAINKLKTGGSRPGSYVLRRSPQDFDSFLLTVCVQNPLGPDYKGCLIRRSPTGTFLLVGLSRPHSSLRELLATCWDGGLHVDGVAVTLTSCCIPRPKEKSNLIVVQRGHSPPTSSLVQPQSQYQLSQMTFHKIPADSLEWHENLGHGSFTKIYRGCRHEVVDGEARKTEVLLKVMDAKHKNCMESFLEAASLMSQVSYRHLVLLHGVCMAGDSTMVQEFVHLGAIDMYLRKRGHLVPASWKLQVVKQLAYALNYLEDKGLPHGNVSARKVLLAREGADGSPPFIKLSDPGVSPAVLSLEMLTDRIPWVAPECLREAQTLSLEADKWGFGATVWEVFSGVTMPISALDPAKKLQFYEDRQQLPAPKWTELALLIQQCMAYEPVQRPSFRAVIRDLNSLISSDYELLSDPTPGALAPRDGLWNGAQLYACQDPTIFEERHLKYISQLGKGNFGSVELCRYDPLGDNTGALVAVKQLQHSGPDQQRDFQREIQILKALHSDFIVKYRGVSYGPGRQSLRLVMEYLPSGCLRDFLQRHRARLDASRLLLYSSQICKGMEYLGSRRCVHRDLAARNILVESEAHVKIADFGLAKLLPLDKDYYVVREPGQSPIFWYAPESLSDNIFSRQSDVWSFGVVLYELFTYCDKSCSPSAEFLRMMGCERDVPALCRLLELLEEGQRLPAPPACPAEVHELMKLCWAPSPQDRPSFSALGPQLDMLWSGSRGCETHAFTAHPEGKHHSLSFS
Put plainly: Kinobeads assay, JAK3. The experiment is classed as binding. Particulars: mixed Molt4/Ramos lysate, read-out: Inhibition values (IC50) JAK3. On the procedure: The compounds of the present invention as described in the previous examples were tested in a Kinobeads™ assay as described for ZAP-70 (WO-A 2007/137867). Briefly, test compounds (at various concentrations) and the affinity matrix with the immobilized aminopyrido-pyrimidine ligand 24 were added to cell lysate aliquots and allowed to bind to the proteins in the lysate sample. After the incubation time the beads with captured proteins were separated from the lysate. Bound proteins were then eluted and the presence of JAK1, JAK2, JAK3 and TYK2 was detected and quantified using specific antibodies in a dot blot procedure and the Odyssey infrared detection system. Dose response curves for individual kinases were generated and IC50 values calculated. Kinobeads™ assays for ZAP-70 (WO-A 2007/137867) and for kinase selectivity profiling (WO-A 2006/134056) have been previously described.
The affinity matrix was washed two times with 15 mL of lx DP buffer containing 0.2% NP40 (IGEPAL® CA-630, Sigma, #13021) and then resuspended in 1×DP buffer containing 0.2% NP40 (3% beads slurry).
5×DP buffer: 250 mM Tris-HCl pH 7.4, 25% Glycerol, 7.5 mM MgCl2, 750 mM NaCl, 5 mM Na3VO4; filter the 5×DP buffer through a 0.22 μm filter and store in aliquots at −80° C. The 5×DP buffer is diluted with H2O to 1×DP buffer containing 1 mM DTT and 25 mM NaF.
Stock solutions of test compounds were prepared in DMSO. In a 96 well plate […] solution of diluted test compounds at 5 mM in DMSO were prepared. Starting with this solution a 1:3 dilution series (9 steps) was prepared. For control experiments (no test compound) a buffer containing 2% DMSO was used.
Molt4 cells (ATCC catalogue number CRL-1582) and Ramos cells (ATCC catalogue number CRL-1596) were grown in 1 L Spinner flasks (Integra Biosciences, #182101) in suspension in RPMI 1640 medium (Invitrogen, #21875-034) supplemented with 10% Fetal Bovine Serum (Invitrogen) at a density between 0.15×10^6 and 1.2×10^6 cells/mL. Cells were harvested by centrifugation, washed once with 1×PBS buffer (Invitrogen, #14190-094) and cell pellets were frozen in liquid nitrogen and subsequently stored at −80° C. Cells were homogenized in a Potter S homogenizer in lysis buffer: 50 mM Tris-HCl, 0.8% NP40, 5% glycerol, 150 mM NaCl, 1.5 mM MgCl2, 25 mM NaF, 1 mM sodium vanadate, 1 mM DTT, pH 7.5. One complete EDTA-free tablet (protease inhibitor cocktail, Roche Diagnostics, 1873580) per 25 mL buffer was added. The material was dounced 10 times using a mechanized POTTER S, transferred to 50 mL falcon tubes, incubated for 30 minutes on ice and spun down for 10 minutes at 20,000 g at 4° C. (10,000 rpm in Sorvall SLA600, precooled). The supernatant was transferred to an ultracentrifuge (UZ)-polycarbonate tube (Beckmann, 355654) and spun for 1 hour at 100.000 g at 4° C. (33.500 rpm in Ti50.2, precooled). The supernatant was transferred again to a fresh 50 mL falcon tube, the protein concentration was determined by a Bradford assay (BioRad) and samples containing 50 mg of protein per aliquot were prepared. The samples were immediately used for experiments or frozen in liquid nitrogen and stored frozen at −80° C.
Cell lysate (approximately 50 mg protein per plate) was thawed in a water bath at room temperature and then stored on ice. To the thawed cell lysate 1×DP 0.8% NP40 buffer containing protease inhibitors (1 tablet for 25 mL buffer; EDTA-free protease inhibitor cocktail; Roche Diagnostics 1873580) was added in order to reach a final protein concentration of 10 mg/mL total protein. The diluted cell lysate was stored on ice. Mixed Molt4/Ramos lysate was prepared by combining one volume of Molt4 lysate and two volumes of Ramos lysate (ratio 1:2).
To a 96 well filter plate (Multiscreen HTS, BV Filter Plates, Millipore #MSBVN1250) were added per well: 100 μL affinity matrix (3% beads slurry), […], of compound solution, and 50 μL of diluted lysate. […]

In experiment [2] the target is T2, TYK2 (Homo sapiens, UniProt P29597).
T2 construct: endogenous in cells; host or cells: Molt4 (ATCC CRL-1582) and Ramos (ATCC CRL-1596), mixed lysate 1:2
Put plainly: Kinobeads assay, TYK2. Particulars: mixed Molt4/Ramos lysate, read-out: Inhibition values (IC50) TYK2. It is filed as binding. The procedure, abridged:
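IC50s come from capture competition: compound at various concentrations versus an immobilized aminopyrido-pyrimidine ligand for kinases in 1:2 Molt4/Ramos lysate (10 mg/mL), 3 h in a cold room. Captured JAK-family kinases were measured by specific-antibody dot blot with Odyssey infrared detection.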

T2 sequence (P29597 whole entry): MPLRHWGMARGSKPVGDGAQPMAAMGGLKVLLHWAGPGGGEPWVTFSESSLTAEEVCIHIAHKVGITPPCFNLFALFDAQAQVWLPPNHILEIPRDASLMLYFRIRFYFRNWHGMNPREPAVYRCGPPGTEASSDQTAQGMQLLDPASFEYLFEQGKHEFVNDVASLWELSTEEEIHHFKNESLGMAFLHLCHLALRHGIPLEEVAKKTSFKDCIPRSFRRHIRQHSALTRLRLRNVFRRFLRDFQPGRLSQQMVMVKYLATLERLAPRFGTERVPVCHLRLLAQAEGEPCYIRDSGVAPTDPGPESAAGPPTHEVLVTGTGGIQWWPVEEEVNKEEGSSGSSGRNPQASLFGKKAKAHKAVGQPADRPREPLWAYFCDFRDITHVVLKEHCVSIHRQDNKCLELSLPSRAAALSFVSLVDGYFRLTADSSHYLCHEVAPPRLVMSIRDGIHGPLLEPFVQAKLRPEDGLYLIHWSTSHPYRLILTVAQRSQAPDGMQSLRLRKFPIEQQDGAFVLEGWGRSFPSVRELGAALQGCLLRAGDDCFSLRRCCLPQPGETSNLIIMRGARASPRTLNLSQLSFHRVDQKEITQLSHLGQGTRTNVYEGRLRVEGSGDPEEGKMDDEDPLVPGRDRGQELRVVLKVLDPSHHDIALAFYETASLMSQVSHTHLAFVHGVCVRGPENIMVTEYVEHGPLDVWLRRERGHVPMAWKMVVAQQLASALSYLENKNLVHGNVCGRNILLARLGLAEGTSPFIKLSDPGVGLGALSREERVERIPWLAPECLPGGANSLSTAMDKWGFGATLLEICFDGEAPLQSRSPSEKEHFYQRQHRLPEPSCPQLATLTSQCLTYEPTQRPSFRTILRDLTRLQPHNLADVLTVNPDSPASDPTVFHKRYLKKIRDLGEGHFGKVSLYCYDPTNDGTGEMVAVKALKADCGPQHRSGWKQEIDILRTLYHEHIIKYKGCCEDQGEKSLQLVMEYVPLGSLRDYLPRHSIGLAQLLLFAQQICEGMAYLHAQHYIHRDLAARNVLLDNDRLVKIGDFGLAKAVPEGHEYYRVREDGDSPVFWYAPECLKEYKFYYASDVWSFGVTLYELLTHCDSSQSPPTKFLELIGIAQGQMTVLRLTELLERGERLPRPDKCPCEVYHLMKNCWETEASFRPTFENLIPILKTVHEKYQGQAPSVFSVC

What is called IC50 is the concentration that gives 50% inhibition. Take `Cn1cc(Nc2ncc(Cl)c(NC(CO)c3ccccc3)n2)cn1` (centres unmarked) [Compound 1]: the IC50 in experiment [1] was less than 0.1 µM; in experiment [2] it was 1 to 10 µM.
In the same order, the values of `Cn1cc(Nc2ncc(F)c(NC(CO)c3ccccc3)n2)cn1` (centres unmarked) [Compound 2] are 0.1 to 1 µM and 1 to 10 µM.
In the same order, the values of `Cn1ccc(Nc2ncc(Cl)c(N[C@H](CO)c3ccccc3)n2)n1` [Compound 11] are 0.1 to 1 µM and not below 10 µM.
In the same order, the values of `Cc1cnc(Nc2cnn(CCO)c2)nc1NC(CO)c1ccccc1` (centres unmarked) [Compound 12] are 0.1 to 1 µM and 1 to 10 µM.
In the case of `O=C(c1cc(Nc2ncc(Cl)c(N[C@H](CO)c3ccccc3)n2)c[nH]1)N1CCOCC1` [Compound 13], the IC50 in experiment [1] was less than 0.1 µM; in experiment [2] it was 0.1 to 1 µM.
In the same order, the values of `Cn1cc(Nc2ncc(Cl)c(NC(CO)Cc3ccccc3)n2)cn1` (centres unmarked) [Compound 14] are 0.1 to 1 µM and 1 to 10 µM.
In the same order, the values of `COC(=O)C(Nc1nc(Nc2cnn(CCO)c2)ncc1Cl)c1ccccc1` (centres unmarked) [Compound 15] are 0.1 to 1 µM and 1 to 10 µM.
Turning to `COC(=O)C(Nc1nc(Nc2cnn(C)c2)ncc1Cl)c1ccccc1` (centres unmarked) [Compound 16], the IC50 lay within 0.1 to 1 µM in experiment [1] and 1 to 10 µM in experiment [2].
The corresponding values for `O=C(O)C(Nc1nc(Nc2cnn(CCO)c2)ncc1Cl)c1ccccc1` (centres unmarked) [Compound 17] are 0.1 to 1 µM and not below 10 µM.
The corresponding values for `Cn1cc(Nc2ncc(Cl)c(NC(C(=O)O)c3ccccc3)n2)cn1` (centres unmarked) [Compound 18] are less than 0.1 µM and 1 to 10 µM.
The corresponding values for `OCCn1cc(Nc2ncc(Cl)c(NC(CO)Cc3ccccc3)n2)cn1` (centres unmarked) [Compound 19] are less than 0.1 µM and 1 to 10 µM.
`CNC(=O)[C@@H](Nc1nc(Nc2cnn(C)c2)ncc1Cl)c1ccccc1` [Compound 20]: the IC50 lay within 0.1 to 1 µM in experiment [1] and 1 to 10 µM in experiment [2].
In the same order, the values of `CC(C)OC(=O)Cn1cc(Nc2ncc(Cl)c(N[C@H](CO)c3ccccc3)n2)cn1` [Compound 21] are less than 0.1 µM and 0.1 to 1 µM.
The corresponding values for `CCOC(=O)Cn1cc(Nc2ncc(Cl)c(N[C@H](CO)c3ccccc3)n2)cn1` [Compound 22] are less than 0.1 µM and 0.1 to 1 µM.
The corresponding values for `CNC(=O)Cn1cc(Nc2ncc(Cl)c(N[C@H](CO)c3ccccc3)n2)cn1` [Compound 23, (S)-2-(4-((5-chloro-4-((2-hydroxy-1-phenylethyl)amino)pyrimidin-2-yl)amino)-1H-pyrazol-1-yl)-N-methylacetamide] are less than 0.1 µM and 1 to 10 µM.
For the compound `O=C(O)Cn1cc(Nc2ncc(Cl)c(N[C@H](CO)c3ccccc3)n2)cn1` [Compound 24], the IC50 in experiment [1] is less than 0.1 µM; in experiment [2], 1 to 10 µM.
Consider `CN(C)C(=O)[C@@H](Nc1nc(Nc2cnn(C)c2)ncc1Cl)c1ccccc1` [Compound 25], for which the concentration for half-maximal inhibition (IC50) was 0.1 to 1 µM in experiment [1] and not below 10 µM in experiment [2].
In the same order, the values of `CN(C)C(=O)[C@@H](Nc1nc(Nc2cnn(CCO)c2)ncc1Cl)c1ccccc1` [Compound 26] are less than 0.1 µM and 1 to 10 µM.
The corresponding values for `CCNC(=O)[C@@H](Nc1nc(Nc2cnn(CCO)c2)ncc1Cl)c1ccccc1` [Compound 27] are less than 0.1 µM and 1 to 10 µM.
For `CCNC(=O)[C@@H](Nc1nc(Nc2cnn(C)c2)ncc1Cl)c1ccccc1` [Compound 28], the values for the IC50 in experiment [1] and in experiment [2] were less than 0.1 µM and 1 to 10 µM, respectively.
Turning to `COCCNC(=O)[C@@H](Nc1nc(Nc2cnn(C)c2)ncc1Cl)c1ccccc1` [Compound 29], the figures for the IC50 in experiment [1] and in experiment [2] were less than 0.1 µM and 1 to 10 µM, respectively.
With `CN(C)C(=O)Cn1cc(Nc2ncc(Cl)c(N[C@H](CO)c3ccccc3)n2)cn1` [Compound 30], the IC50 is less than 0.1 µM in experiment [1] and 0.1 to 1 µM in experiment [2].
In the same order, the values of `CNC(=O)Cn1cc(Nc2ncc(Cl)c(NC(CO)c3c(F)cccc3F)n2)cn1` (centres unmarked) [Compound 31] are less than 0.1 µM and 1 to 10 µM.
The corresponding values for `CNC(=O)Cn1cc(Nc2ncc(Cl)c(NC(CO)c3cccc(F)c3)n2)cn1` (centres unmarked) [Compound 32] are less than 0.1 µM and 1 to 10 µM.
For `CNC(=O)Cn1cc(Nc2ncc(Cl)c(NC(CO)c3ccccc3F)n2)cn1` (centres unmarked) [Compound 33], the IC50 in experiment [1] was less than 0.1 µM; in experiment [2] it was 1 to 10 µM.
Consider `Cn1cc(Nc2ncc(Cl)c(N[C@H](C(=O)N3CCCC3)c3ccccc3)n2)cn1` [Compound 34], for which the IC50 in experiment [1] was 0.1 to 1 µM; in experiment [2], not below 10 µM.
In the same order, the values of `O=C([C@@H](Nc1nc(Nc2cnn(CCO)c2)ncc1Cl)c1ccccc1)N1CCCC1` [Compound 35] are 0.1 to 1 µM and 1 to 10 µM.
The corresponding values for `OCCn1cc(Nc2ncc(Cl)c(NC(CO)c3ccccc3F)n2)cn1` (centres unmarked) [Compound 36] are less than 0.1 µM and 0.1 to 1 µM.
In the same order, the values of `Cn1cc(Nc2ncc(Cl)c(NC(CO)c3ccccc3F)n2)cn1` (centres unmarked) [Compound 37] are less than 0.1 µM and 1 to 10 µM.
As to `CC(O)Cn1cc(Nc2ncc(Cl)c(NC(CO)c3cccc(F)c3)n2)cn1` (centres unmarked) [Compound 38], the IC50 in experiment [1] is less than 0.1 µM; in experiment [2], 1 to 10 µM.
As for `OCCn1cc(Nc2ncc(Cl)c(NC(CO)c3cccc(F)c3)n2)cn1` (centres unmarked) [Compound 39], the IC50 in experiment [1] is less than 0.1 µM; in experiment [2], 0.1 to 1 µM.
